Assay results: US10258701B2, “Labeled evans blue dye derivative for in vivo serum albumin labeling” (The United States of America, as represented by the …, priority 2015, dated 2019)
Where “and” joins values, the source holds several entries; their conditions need not be identical. Equal entries are not always repeated.

Molecular target: albumin (Homo sapiens, UniProt P02768)
Assay: Saturation binding assay of NEB with albumin (bound/unbound separated by agarose gel electrophoresis)
Details: unbound NEB quantified, read-out: dissociation constant (Kd) of NEB to albumin
From the text: In a particular embodiment, the compound of formula (I) (also referred to herein as “NEB”) wherein n is 0 can be synthesized in two steps starting from o-tolidine as shown in Scheme 1. 1, 4, 7-triazacyclononane-N,N,N″-triacetic acid-3HCl (“NOTA”) was first coupled to o-tolidine using diethyl cyanophosphonate to give NOTA-o-tolidine in 26% yield after preparative reversed-phase HPLC. NOTA-o-tolidine was then coupled to 1-amino-8-naphthol-2,4-disulfonic acid to give NEB through the formation of diazonium salt with a yield of 46.6%. The purity of the product was >98% based on HPLC analysis and the identity of the product was confirmed by LC-MS. This truncated version of Evans blue retained the binding ability with albumin since stable NEB/albumin complex was confirmed by LC/MS. The complex formation was also confirmed by saturation binding assay. The bound NEB could be separated from the unbound NEB using agarose gel electrophoresis. […] The ^18F-AlF complex of NEB is also referred to herein as ^18F-AlF-NEB. The ^64CU complex of NEB is also referred to herein as ^64Cu-NEB.

Sequence of albumin (P02768 25-609, species assumed): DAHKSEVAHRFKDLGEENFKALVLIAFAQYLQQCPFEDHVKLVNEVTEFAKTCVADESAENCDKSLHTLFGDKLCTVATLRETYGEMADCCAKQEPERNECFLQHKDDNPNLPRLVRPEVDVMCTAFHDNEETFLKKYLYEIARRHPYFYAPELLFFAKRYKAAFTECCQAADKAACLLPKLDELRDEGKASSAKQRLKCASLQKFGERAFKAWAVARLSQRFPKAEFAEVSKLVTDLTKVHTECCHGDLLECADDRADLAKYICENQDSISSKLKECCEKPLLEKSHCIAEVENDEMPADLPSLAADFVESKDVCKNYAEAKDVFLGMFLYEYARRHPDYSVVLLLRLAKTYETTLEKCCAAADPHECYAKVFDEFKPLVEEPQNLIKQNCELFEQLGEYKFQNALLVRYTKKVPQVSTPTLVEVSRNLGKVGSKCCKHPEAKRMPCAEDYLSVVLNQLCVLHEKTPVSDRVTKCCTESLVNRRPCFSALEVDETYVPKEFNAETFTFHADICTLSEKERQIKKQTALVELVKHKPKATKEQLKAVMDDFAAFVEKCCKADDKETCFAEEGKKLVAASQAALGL

- Kd: 48.9 µM and ~50 µM
Compound: Cc1cc(-c2ccc(NC(=O)CN3CCN(CC(=O)O)CCN(CC(=O)O)CC3)c(C)c2)ccc1N=Nc1ccc2c(S(=O)(=O)O)cc(S(=O)(=O)O)c(N)c2c1O [NEB]
